Assay results: patent US9464092B2, “Transient protection of normal cells during chemotherapy” (G1 Therapeutics, Inc., priority 2013, dated 2016)
Like-named read-outs stand apart in the source and are kept apart here.

Key:
[1] = Mouse pharmacokinetics (oral gavage / intravenous); assay type: in vivo, mice; settings: mouse
[2] = tested on: HSPCs (bone marrow); assay: HSPC proliferation in bone marrow by EdU incorporation after oral gavage; assay type: in vivo, mice
Method: Mice were then sacrificed at the indicated times (0, 12, 24, 36, or 48 hours following compound administration), and bone marrow was harvested (n=3 mice per time point), as previously described (Johnson et al. J. Clin. Invest. (2010) 120(7), 2528-2536). Four hours before the bone marrow was harvested, mice were treated with 100 μg of EdU by intraperitoneal injection (Invitrogen). Bone marrow mononuclear cells were harvested and immunophenotyped using previously described methods and percent EdU positive cells were then determined (Johnson et al. J. Clin. Invest. (2010) 120(7), 2528-2536). In brief, HSPCs were identified by expression of lineage markers (Lin-), Sca1 (S+), and c-Kit (K+).
Four hours before animals were sacrificed and the bone marrow was harvested, mice were treated with 100 μg of EdU by intraperitoneal injection. Three mice per group were sacrificed at 12 hours and the remaining three animals per group were sacrificed at 24 hours. Results are shown in FIG. 6A as the ratio of EdU positive cells for treated animals at 12 or 24 hour time points compared to control.
Further experiments were completed with Compound T examining dose response and longer periods of compound treatment. […] […].
Both compounds were administered at 150 mg/kg by oral gavage. One hour prior to harvesting bone marrow, EdU was IP injected to label cycling cells. Bone marrow was harvested at 12, 24, 36, and 48 hours after compound treatment and the percentage of EdU positive HSPC cells was determined at each time point.

[3] = tested on: hematopoietic cells (bone marrow); assay: EdU incorporation in hematopoietic cell lineages of C57Bl/6 mice; assay type: in vivo; settings: 150 mg/kg oral gavage, 12 hours
Method: Ten-hours later, all mice were given a single i.p. injection of 100 mcg EdU (5-ethynyl-2′-deoxyuridine) to label cells in S-phase of the cell cycle. All treated mice were euthanized 2 hours after EdU injection, bone marrow cells were harvested and processed for flow cytometric analysis of EdU-incorporation (FIG. 13).

[4] = tested on: tHS68 cells (CDK4/6-dependent cell line); assay: Cell cycle arrest by propidium iodide flow cytometry, tHS68; assay type: cell-based, human; settings: 300 nM, 24 hours
Excerpt: (§1) To test the ability of Cdk4/6 inhibitors to induce a clean G1-arrest, a cell based screening method was used consisting of two Cdk4/6-dependent cell lines (tHS68 and WM2664; Rb-positive) and one Cdk4/6-independent (A2058; Rb-negative) cell line. […] At the conclusion of the experiment, cells were harvested, fixed, and stained with propidium iodide (a DNA intercalator), which fluoresces strongly red (emission maximum 637 nm) when excited by 488 nm light. Samples were run on Dako Cyan flow cytometer and >10,000 events were collected for each sample. Data were analyzed using FlowJo 2.2 software developed by TreeStar, Inc.

[5] = tested on: WM2664 cells (CDK4/6-dependent cell line); assay: Cell cycle arrest by propidium iodide flow cytometry, WM2664; assay type: cell-based; settings: 300 nM, 24 hours
Excerpt: as §1

[6] = tested on: A2058 cells (CDK4/6-independent cell line); assay: Cell cycle arrest by propidium iodide flow cytometry, A2058; assay type: cell-based, human; settings: 300 nM, 24 hours
Excerpt: as §1

[7] = tested on: tHS68 human fibroblasts; assay: Protection from chemotherapy-induced cell death (Cell TiterGlo); assay type: cell-based; settings: etoposide 5 μM or carboplatin 100 μM
Method: Cell survival was determined by Cell TiterGlo assay per manufacturer's recommendations. For both γ-H2AX and caspase 3/7 assays, cells were plated and allowed to become adherent for 24 hours. […] For γ-H2AX, cells were harvested for analysis 8 hours after chemotherapy exposure. For the γ-H2AX assay, cells were fixed, permeabilized, and stained with anti-γ-H2AX as per the γ-H2AX Flow Kit (Millipore) and quantitated by flow cytometry. Data was analyzed using FlowJo 2.2 software developed by TreeStar, Inc. For the in vitro caspase 3/7 assay, cells were harvested 24 hours post chemotherapy treatment. Caspase 3/7 activation was measured using the Caspase-Glo® 3/7 Assay System (Promega) per manufacturer's recommendations.

[8] = tested on: human renal proximal tubule cells; assay: Cell cycle analysis of renal proximal tubule cells with etoposide or cisplatin; assay type: cell-based; settings: 10-1000 nM with etoposide or cisplatin
Method: The ability of Cdk4/6 inhibitors to protect human renal proximal tubule cells from chemotherapy induced DNA damage was analyzed using etoposide and cisplatin. […] At the conclusion of the experiment, cells were harvested, fixed, and stained with propidium iodide (a DNA intercalator), which fluoresces strongly red (emission maximum 637 nm) when excited by 488 nm light. Samples were run on Dako Cyan flow cytometer.

[9] = tested on: human renal proximal tubule cells; assay: γ-H2AX assay in renal proximal tubule cells with cisplatin; assay type: cell-based; settings: 10 nM-1 uM with 25 uM cisplatin
Method: Normal renal proximal tubule epithelial cells were obtained from American Type Culture Collection (ATCC, Manassas, Va.). Cells were grown in an incubator at 37° C. in a humidified atmosphere of 5% CO2 in Renal Epithelial Cell Basal Media (ATCC) supplemented with Renal Epithelial Cell Growth Kit (ATCC) in 37° C. humidified incubator. […] For the γ-H2AX assay, cells were fixed, permeabilized, and stained with anti-γ-H2AX as per the γ-H2AX Flow Kit (Millipore) and quantitated by flow cytometry. Data was analyzed using FlowJo 2.2 software developed by TreeStar, Inc. Caspase 3/7 activation was measured using the Caspase-Glo 3/7 Assay System (Promega, Madison, Wis.) by following the manufacturer's instructions.

[10] = tested on: RB-negative SCLC cell lines (H69, H82, H209, H345, NCI417, or SHP-77); assay: EdU proliferation, RB-negative SCLC cell lines; settings: 24 hours

CN1CCN(c2ccc(Nc3ncc4cc5n(c4n3)C3(CCCCC3)CNC5=O)nc2)CC1 [Compound T]
F [1]: 80% | half-life ([1]; plasma, po, 30 mg/kg, 30 mg/kg oral gavage, read-out: t1/2 p.o. (converted)): 5 h | half-life ([1]; plasma, po, 30 mg/kg, read-out: plasma half-life following oral administration): 3 to 5 h | bioavailability ([1]; plasma, po, 30 mg/kg, read-out: oral bioavailability (F (%))): 52 to 80% | AUC(0-inf) ([1]; plasma, iv, 10 mg/kg i.v.): 1.3 µM·h | clearance ([1]; plasma, iv, 10 mg/kg i.v.): 35 mL/min/kg | Vd ([1]; plasma, iv, 10 mg/kg i.v., read-out: Vss): 2.7 L/kg | AUC ([1]; plasma, 30 mg/kg oral gavage): 2.9 µM·h | Cmax ([1]; plasma, 30 mg/kg oral gavage): 2500 nM | Tmax ([1]; plasma, 30 mg/kg oral gavage): 1 h | EdU incorporation into HSPCs at 12 and 24 hours compared to control ([2]; 150 mg/kg oral gavage): reduction in EdU incorporation at 12 hours which was starting to return to normal at 24 hours | G1-arrest of bone marrow stem cells (HSPC) ([2]; oral gavage, mice): dose dependent, transient, and reversible G1-arrest | inhibition of hematopoietic stem cells (HSC), EdU [3]: 74% | inhibition of multipotent progenitors (MPP), EdU [3]: 90% | reduction in EdU+ cell frequency, B cell progenitors [3]: > 80% | reduction in EdU+ cell frequency, Mac1+G1+ myeloid cells [3]: 46% | reduction in EdU+ cell frequency, T cell progenitors [3]: > 99% | reduction in EdU+ cell frequency, Ter119+ erythroid cells [3]: 58% | reduction in EdU+ cell frequency, lineage restricted myeloid (CMP, GMP and MEP) and lymphoid progenitors (CLP) [3]: 76-92% | reduction of EdU+ cell frequency in unfractionated whole bone marrow cells [3]: ~70% | effect on S-phase peak [4]: causes a loss of the S-phase peak | effect on S-phase peak [5]: causes a loss of the S-phase peak | effect on S-phase peak [6]: does not cause a loss of the S-phase peak | protection from chemotherapy-induced cell death (cell survival) [7]: selective protection from carboplatin and etoposide-induced cell death | protection from chemotherapy induced DNA damage (cell cycle distribution) [8]: protects renal proximal tubule epithelial cells from chemotherapy induced DNA damage | DNA damage as measured by γ-H2AX formation [9]: attenuated DNA damage | effect on proliferation (EdU, percent of cells in S-phase) [10]: does not affect the growth of the Rb-negative cell lines
